Experimental data reported in US20220325235A1, “CELL CULTURE METHODS” (The University of Massachusetts, priority 2019, published 2022).
Entries after “also recorded” stand apart in the source; their conditions may differ.

Columns and labels:
CHO-K1 cell line = assay: Fed-batch spiking test: IgG glycan profile by HPLC with Glycan Column; type: cell-based, Chinese hamster
Method: Industrial standard Fed-batch process: CHO-K1 cell line is cultured in corresponding media. Feed for 14 days, with 6 mM glutamine supplement on the inoculation day. The working volume is 30 mL in 125 mL shake flasks, and the inoculation cell density is 0.5 million cells/mL. The parameters for the shaking incubator are: 125 RPM, and 5% CO2. The feeding strategy is 10% corresponding feed everyday starting from day 3 to day 13.
In the standard industrial fed-batch process, cells were exposed to the inhibitors for a long period of time. This experiment mimics the therapeutic antibody production process, and spikes the inhibitors at their end-of-culture cellular concentration. ICA was confirmed as a known inhibitor and was used as a positive inhibitor control. Mixture condition excluded ICA and included AA, HICA, CMP, MSA, TRI, NAP. The process lasted for 14 days, and starting from day 6, the cell density under the inhibitor conditions were lower than the negative control batch.
IgG titer was measured by HPLC with a Protein A column. Product quality was quantified by the IgG glycan profile, which was measured by HPLC with a Glycan Column.

CHO cells = assay: Batch culture spiking of metabolites at end-of-culture concentration: cell density; type: cell-based, Chinese hamster; conditions: 6 days, spiked at end-of-culture concentration
Method: CHO K-1 industrial standard batch process: NIH CHO-K1 cell line is cultured for 6 days, with 6 mM glutamine supplement on the inoculation day. The working volume is 30 mL in 125 mL shake flasks, and the inoculation cell density is 0.5 million cells/mL. The parameters for the shaking incubator are: 125 RPM, and 5% CO2.
Cells were exposed to the identified inhibitory metabolites of Table 1 at their end-of-culture concentration for 6 days in batch culture. […] All of the inhibitory metabolites decreased the antibody productivity (FIG. 4).

Structure (SMILES) | Impact on G1F formation compared to control group (CHO-K1 cell line) | Impact on G2F formation compared to control group (CHO-K1 cell line; Day 14) | Cell density compared with the control group (CHO cells)
O=C(O)C=C(CC(=O)O)C(=O)O [AA, aconitic acid] | higher impact | totally inhibits; also recorded: G2F was not formed | lower cell density
Nc1ccn([C@@H]2O[C@H](COP(=O)(O)O)[C@@H](O)[C@H]2O)c(=O)n1 [CMP, cytidine monophosphate] | higher impact |  | lower cell density
CC(C)CC(O)C(=O)O (stereo not drawn) [HICA, leucinic acid] | higher impact |  | 
O=C(O)c1c[nH]c2ccccc12 [ICA, indole-3-carboxylic acid, reference compound] | higher impact |  | lower cell density
CC(CC(=O)O)C(=O)O (stereo not drawn) [MSA, methylsuccinic acid] | higher impact |  | 
